The values below come from patent US12447153B2, “HER2 mutation inhibitors” (Array BioPharma Inc., priority 2021, dated 2025).

By IC50 is commonly meant the concentration that gives 50% inhibition. High values mean a need for much substance, low ones inhibition by little substance.

In data set [1] the target is ErbB2 with Exon 20 YVMA insertion (HER2-YVMA) (Homo sapiens (Human), UniProt P04626, INS775YVMA). The experiment in a line: Cellular Phosphorylation Assay, Assay 4 (constitutive ErbB2 phosphorylation, NIH 3T3 cells). It is filed as cell-based.
The target of data set [2] is BCRP (Homo sapiens (Human), UniProt Q9UNQ0). Kind of data set: BCRP MDCKII efflux assay (Assay 7). It is filed as in vitro ADME. The note with it: dog; efflux ratio Papp(B-A)/Papp(A-B), BCRP MDCKII cells; read-out: Assay 7 Pe Ratio. The method, then: Assay conditions included with and without the BCRP-specific inhibitor, KO143, at a concentration of 0.3 μM to ascertain the contribution of BCRP to the efflux value of the test compound.
Final organic concentration in the assay was 1%.

The target of data set [3] is EGFR wild type (EGFR WT) (Homo sapiens (Human), UniProt P00533). The experiment in a line: Cellular Phosphorylation Assay, Assay 5 (EGF-stimulated EGFR phosphorylation, NIH 3T3 cells). It is filed as cell-based.
Data set [4] has as its target ErbB2 WT (Homo sapiens (Human), UniProt P04626). Kind of data set: ErbB Enzyme Assay (HTRF KinEASE-TK), Assay 2. It is filed as biochemical. A general note: Time-resolved FRET reads energy transfer from a long-lived donor to a nearby acceptor.
For data set [5], the target named is EGFR (Homo sapiens (Human), UniProt P00533). The experiment in a line: ErbB Enzyme Assay (HTRF KinEASE-TK), Assay 3. It is filed as biochemical.
Data set [6] concerns the target MDR1 (P-gp) (Homo sapiens (Human), UniProt P08183). The experiment in a line: in vitro. The note with it: pig, LLC-PK1.
Method: Both LLC-PK1 and MDR1 transfected LLC-PK1 cells were cultured and plated according to manufacturer's recommendations with the exception that the passage media contained only 2% fetal bovine serum so as to extend passage time out to seven days.
Both positive and negative controls were used to assess functionality of P-gp or BCRP efflux in the assays. Stock solutions for assay controls and the test article were prepared in DMSO for final test concentrations of 10 μM and 1 μM, respectively. Final organic concentration in the assay was 1%. All dosing solutions contained 10 μM lucifer yellow to monitor LLC PK1 or MDCKII cell monolayer integrity.
For the apical to basolateral determination (A to B), 75 μL of the test article in transport buffer were added to the apical side of the individual transwells and 250 μL of basolateral media, without compound or lucifer yellow, were added to each well. For the basolateral to apical determination (B to A), 250 μL of test article in transport buffer were added to each well and 75 μL transport buffer, without compound or lucifer yellow, were added to each transwell. All tests were performed in triplicate, and each compound was tested for both apical to basolateral and basolateral to apical transport. The plates were incubated for 2 hours on a Lab-Line Instruments Titer Orbital Shaker (VWR, West Chester, PA) at 50 rpm and 37° C. with 5% CO2. All culture plates were removed from the incubator, 50 μL of media were removed from the apical and basolateral portion of each well, and added to 150 μL of 1 μM labetalol in 2:1 acetonitrile (ACN): H2O, v/v.
The plates were read using a Molecular Devices (Sunnyvale, CA) Gemini Fluorometer to evaluate the lucifer yellow concentrations at excitation/emission wavelengths of 425/535 nm. These values were accepted when found to be below 2% for apical to basolateral and 5% basolateral to apical flux across the MDR1-transfected LLC-PK1 or BCRP-transfected MDCKII cell monolayers. The plates were sealed, and the contents of each well analyzed by LC MS/MS. The compound concentrations were determined from the ratio of the peak areas of the compound to the internal standard (labetalol) in comparison to the dosing solution.
The LC-MS/MS system was comprised of an HTS-PAL autosampler (Leap Technologies, Carrboro, NC), an HP1200 HPLC (Agilent, Palo Alto, CA), and a MDS Sciex 4000 Q Trap system (Applied Biosystems, Foster City, CA). […] The total run time, including re-equilibration, for a single injection was 1.2 minutes. Mass spectrometric detection of the analytes was accomplished using the ion spray positive mode. Analyte responses were measured by multiple reaction monitoring (MRM) of transitions unique to each compound (the protonated precursor ion and selected product ions for each test article and m/z 329 to m/z 162 for labetalol, the internal standard).
An efflux ratio is calculated from the mean apical to basolateral (A-B) Papp data and basolateral to apical (B-A) Papp data: Efflux ratio=Papp(B−A)/Papp(A−B)
[7] abbreviates: cellular ErbB2 YVMA phosphorylation.
Where [8] appears, read: cellular EGFR WT phosphorylation, EGF-stimulated.
[9] abbreviates: EGF-stimulated EGFR WT phosphorylation.

EGFR, sequence (P00533 25-1210): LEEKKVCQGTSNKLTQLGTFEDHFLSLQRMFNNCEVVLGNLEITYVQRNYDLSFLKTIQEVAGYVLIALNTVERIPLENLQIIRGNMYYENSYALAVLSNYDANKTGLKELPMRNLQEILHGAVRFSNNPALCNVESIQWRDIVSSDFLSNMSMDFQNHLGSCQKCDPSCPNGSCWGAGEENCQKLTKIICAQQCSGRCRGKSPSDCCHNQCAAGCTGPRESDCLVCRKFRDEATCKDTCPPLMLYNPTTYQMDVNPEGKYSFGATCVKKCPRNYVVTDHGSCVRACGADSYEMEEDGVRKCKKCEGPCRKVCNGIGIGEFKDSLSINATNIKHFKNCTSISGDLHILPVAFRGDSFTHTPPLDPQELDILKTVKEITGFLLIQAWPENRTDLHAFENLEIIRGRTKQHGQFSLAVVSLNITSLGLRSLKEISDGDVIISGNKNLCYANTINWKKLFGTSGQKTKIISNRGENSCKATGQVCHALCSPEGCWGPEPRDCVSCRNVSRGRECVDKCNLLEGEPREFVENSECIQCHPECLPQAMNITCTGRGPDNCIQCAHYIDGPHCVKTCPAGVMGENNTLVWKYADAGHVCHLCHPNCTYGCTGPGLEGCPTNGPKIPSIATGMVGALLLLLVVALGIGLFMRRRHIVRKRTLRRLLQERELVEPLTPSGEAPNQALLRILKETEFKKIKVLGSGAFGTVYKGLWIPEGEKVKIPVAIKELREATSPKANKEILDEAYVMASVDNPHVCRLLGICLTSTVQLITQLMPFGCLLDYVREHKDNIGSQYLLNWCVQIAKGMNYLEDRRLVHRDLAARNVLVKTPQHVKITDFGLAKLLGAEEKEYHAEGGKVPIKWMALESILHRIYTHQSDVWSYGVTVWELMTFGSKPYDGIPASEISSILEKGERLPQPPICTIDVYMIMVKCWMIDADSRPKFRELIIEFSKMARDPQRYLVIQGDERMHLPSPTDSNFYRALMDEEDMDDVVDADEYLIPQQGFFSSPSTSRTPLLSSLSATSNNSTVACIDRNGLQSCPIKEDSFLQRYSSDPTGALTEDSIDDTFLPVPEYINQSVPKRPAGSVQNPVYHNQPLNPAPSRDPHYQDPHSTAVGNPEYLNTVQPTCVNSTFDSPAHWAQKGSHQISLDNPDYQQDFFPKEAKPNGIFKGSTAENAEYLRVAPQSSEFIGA
EGFR wild type (EGFR WT), sequence (P00533 25-1210): as above
BCRP, sequence (Q9UNQ0 whole entry): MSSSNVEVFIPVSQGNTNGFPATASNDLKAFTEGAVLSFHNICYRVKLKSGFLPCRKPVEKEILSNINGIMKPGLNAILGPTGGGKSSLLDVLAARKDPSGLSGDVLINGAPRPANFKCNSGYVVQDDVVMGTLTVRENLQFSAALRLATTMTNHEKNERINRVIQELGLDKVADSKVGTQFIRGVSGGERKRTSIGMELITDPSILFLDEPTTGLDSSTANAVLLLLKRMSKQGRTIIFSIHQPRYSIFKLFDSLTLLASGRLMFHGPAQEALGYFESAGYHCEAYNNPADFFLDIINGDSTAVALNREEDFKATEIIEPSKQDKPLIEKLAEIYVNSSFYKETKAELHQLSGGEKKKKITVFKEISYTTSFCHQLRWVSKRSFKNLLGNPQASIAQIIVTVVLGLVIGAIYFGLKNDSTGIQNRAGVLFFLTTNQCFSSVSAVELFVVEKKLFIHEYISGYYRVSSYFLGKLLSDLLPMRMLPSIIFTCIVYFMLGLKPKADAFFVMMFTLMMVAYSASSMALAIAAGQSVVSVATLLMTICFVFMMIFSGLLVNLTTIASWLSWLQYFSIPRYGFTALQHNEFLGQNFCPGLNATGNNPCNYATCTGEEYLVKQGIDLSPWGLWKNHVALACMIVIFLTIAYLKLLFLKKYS
MDR1 (P-gp), sequence (P08183 whole entry): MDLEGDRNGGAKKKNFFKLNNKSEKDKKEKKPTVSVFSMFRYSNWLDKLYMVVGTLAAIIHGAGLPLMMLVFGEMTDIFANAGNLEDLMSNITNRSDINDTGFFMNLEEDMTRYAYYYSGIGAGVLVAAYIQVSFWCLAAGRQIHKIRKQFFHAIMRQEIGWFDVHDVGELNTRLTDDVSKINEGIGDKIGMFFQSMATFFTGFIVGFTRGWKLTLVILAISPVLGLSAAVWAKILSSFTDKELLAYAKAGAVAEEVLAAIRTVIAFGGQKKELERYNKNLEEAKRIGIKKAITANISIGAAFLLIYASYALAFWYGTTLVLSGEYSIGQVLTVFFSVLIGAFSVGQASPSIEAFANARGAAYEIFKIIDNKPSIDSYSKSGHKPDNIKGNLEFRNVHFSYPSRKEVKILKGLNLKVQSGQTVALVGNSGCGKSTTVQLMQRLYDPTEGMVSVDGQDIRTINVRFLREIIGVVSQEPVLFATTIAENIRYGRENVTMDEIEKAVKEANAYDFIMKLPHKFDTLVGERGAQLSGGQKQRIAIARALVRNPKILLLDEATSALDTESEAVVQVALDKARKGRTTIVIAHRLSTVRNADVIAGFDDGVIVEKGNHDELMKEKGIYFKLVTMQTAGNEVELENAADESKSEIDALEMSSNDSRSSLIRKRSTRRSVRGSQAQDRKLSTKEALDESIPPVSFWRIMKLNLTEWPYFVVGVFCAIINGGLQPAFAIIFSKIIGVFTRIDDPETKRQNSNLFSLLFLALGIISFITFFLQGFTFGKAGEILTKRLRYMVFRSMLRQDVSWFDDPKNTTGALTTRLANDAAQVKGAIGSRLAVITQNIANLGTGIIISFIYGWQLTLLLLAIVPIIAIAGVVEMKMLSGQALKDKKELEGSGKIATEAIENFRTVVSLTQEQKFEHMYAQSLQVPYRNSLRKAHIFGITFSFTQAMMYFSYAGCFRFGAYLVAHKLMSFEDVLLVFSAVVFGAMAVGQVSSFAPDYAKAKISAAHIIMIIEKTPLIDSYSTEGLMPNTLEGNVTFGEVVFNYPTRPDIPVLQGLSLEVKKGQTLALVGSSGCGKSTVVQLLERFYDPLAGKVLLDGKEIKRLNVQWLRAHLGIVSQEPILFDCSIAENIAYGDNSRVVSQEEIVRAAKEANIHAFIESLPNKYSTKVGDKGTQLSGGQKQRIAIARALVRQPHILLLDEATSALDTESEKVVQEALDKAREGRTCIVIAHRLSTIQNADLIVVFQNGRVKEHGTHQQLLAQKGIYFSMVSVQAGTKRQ

On to `C=CC(=O)N1[C@@H]2CCC[C@H]1[C@@H](c1ccc3ncnc(Nc4ccc(Oc5ccn6ncnc6c5)c(C)c4F)c3n1)C2` [Example 415], for which the IC50 is 32 nM in data set [1] (setting [7]), not below 5000 nM in data set [3] (setting [8]), 9.8 nM in data set [4] (ErbB2 WT enzyme assay) and 247 nM in data set [5] (EGFR enzyme assay). In addition, the efflux ratio at 2 h, 1 µM is 1.8 in data set [2] and 1 in data set [6].

Turning to `C=CC(=O)N1CCC(Sc2ccc3ncnc(Nc4ccc(Oc5ccc6c(c5)ncn6C)c(C)c4F)c3n2)CC1` [Example 28, 1-(4-((4-((2-fluoro-3-methyl-4-((1-methyl-1H-benzo[d]imidazol-5-yl)oxy)phenyl)amino)pyrido[3,2-d]pyrimidin-6-yl)thio)piperidin-1-yl)prop-2-en-1-one], the IC50 in data set [1] (ErbB2 YVMA phosphorylation) is 26.4 nM; in data set [3] (setting [9]) it was not below 5000 nM; in data set [4] (ErbB2 WT enzyme), 275 nM; in data set [5] (EGFR enzyme), not below 10000 nM. In addition, the efflux ratio at 2 h, 1 µM in data set [2] turned out to be 5.2; in data set [6], 2.

With `C=CC(=O)N1CC2CC(C1)N2c1ccc2ncnc(Nc3cc(Cl)c(Oc4ccn5ncnc5c4)cc3F)c2n1` [Example 45, 1-(6-(4-((4-([1,2,4]triazolo[1,5-a]pyridin-7-yloxy)-5-chloro-2-fluorophenyl)amino)pyrido[3,2-d]pyrimidin-6-yl)-3,6-diazabicyclo[3.1.1]heptan-3-yl)prop-2-en-1-one], the IC50 in data set [1] (ErbB2 YVMA phosphorylation) turned out to be 17.1 nM; in data set [3] (setting [9]), 2760 nM; in data set [4] (ErbB2 WT enzyme), 222 nM; in data set [5] (EGFR enzyme) it was 8300 nM. Moreover, the efflux ratio at 2 h, 1 µM turned out to be 5.6 in data set [2] and 2.5 in data set [6].

For `C=CC(=O)N1[C@@H]2CC[C@H]1[C@H](c1ccc3ncnc(Nc4ccc(Oc5ccn6ncnc6c5)c(C)c4)c3n1)C2` (racemic) [Example 220, rac-1-((1 S,2R,4R)-2-(4-((4-([1,2,4]triazolo[1,5-a]pyridin-7-yloxy)-3-methylphenyl)amino)pyrido[3,2-d]pyrimidin-6-yl)-7-azabicyclo[2.2.1]heptan-7-yl)prop-2-en-1-one], the IC50 was 18.5 nM in data set [1] (ErbB2 YVMA phosphorylation), not below 5000 nM in data set [3] (setting [9]), 17.9 nM in data set [4] (ErbB2 WT enzyme) and 412 nM in data set [5] (EGFR enzyme). The efflux ratio at 2 h, 1 µM in data set [2] worked out at 2.2; in data set [6], 1.3.

`C=CC(=O)N1CCN(c2ccc3ncnc(Nc4cc(Cl)c(Oc5ccn6ncnc6c5)cc4F)c3n2)CC1(C)C` [Example 326]: the IC50 is 19.7 nM in data set [1] (setting [7]), 961 nM in data set [3] (setting [8]), 18.7 nM in data set [4] (ErbB2 WT enzyme assay) and 2860 nM in data set [5] (EGFR enzyme assay). Moreover, the efflux ratio at 2 h, 1 µM is 2.1 in data set [2] and 1.5 in data set [6].

For `C=CC(=O)N1[C@@H]2CC[C@H]1CC(c1ccc3ncnc(Nc4ccc(Oc5ccc6c(c5)ncn6C)c(C)c4F)c3n1)C2` (mixture of isomers) [Example 143, rac-1-((1R,5S)-3-(4-((2-fluoro-3-methyl-4-((1-methyl-1H-benzo[d]imidazol-5-yl)oxy)phenyl)amino)pyrido[3,2-d]pyrimidin-6-yl)-8-azabicyclo[3.2.1]octan-8-yl)prop-2-en-1-one], the IC50 in data set [1] (ErbB2 YVMA phosphorylation) was found to be 20.9 nM; in data set [3] (setting [9]), 2940 nM; in data set [4] (ErbB2 WT enzyme) it was 32.7 nM; in data set [5] (EGFR enzyme) it was 1850 nM. In addition, the results for the efflux ratio at 2 h, 1 µM in data set [2] and in data set [6] were 3 and 1.7, respectively.

As to `CC#CC(=O)N1CC2CCC(C1)N2c1ccc2ncnc(Nc3ccc(Oc4ccn5ncnc5c4)c(C)c3F)c2n1` [Example 246, 1-(8-(4-((4-([1,2,4]triazolo[1,5-a]pyridin-7-yloxy)-2-fluoro-3-methylphenyl)amino)pyrido[3,2-d]pyrimidin-6-yl)-3,8-diazabicyclo[3.2.1]octan-3-yl)but-2-yn-1-one], the IC50 in data set [1] (ErbB2 YVMA phosphorylation) turned out to be 16.2 nM; in data set [3] (setting [9]), 1300 nM; in data set [4] (ErbB2 WT enzyme) it was 34.8 nM; in data set [5] (EGFR enzyme), 1800 nM. The efflux ratio at 2 h, 1 µM in data set [2] stood at 1.3; in data set [6] it was 0.5.

As to `C=CC(=O)N1CC[C@@H](c2ccc3ncnc(Nc4ccc(Oc5ccn6ncnc6c5)c(C)c4F)c3n2)CC12CC2` (single isomer, unassigned) [Example 173], the IC50 in data set [1] (ErbB2 YVMA phosphorylation) was 21 nM; in data set [3] (setting [9]), 2310 nM; in data set [4] (ErbB2 WT enzyme), 105 nM; in data set [5] (EGFR enzyme), not below 10000 nM. For the same compound, the figures for the efflux ratio at 2 h, 1 µM in data set [2] and in data set [6] were 3 and 0.7, respectively.

On to `C=CC(=O)N1C[C@H]2CC[C@@H]1C[C@H]2c1ccc2ncnc(Nc3ccc(Oc4ccn5ncnc5c4)c(C)c3F)c2n1` (racemic) [Example 218, rac-1-((1R,4S,5R)-5-(4-((4-([1,2,4]triazolo[1,5-a]pyridin-7-yloxy)-2-fluoro-3-methylphenyl)amino)pyrido[3,2-d]pyrimidin-6-yl)-2-azabicyclo[2.2.2]octan-2-yl)prop-2-en-1-one], for which the IC50 was 32.7 nM in data set [1] (ErbB2 YVMA phosphorylation), not below 5000 nM in data set [3] (setting [9]), 24.4 nM in data set [4] (ErbB2 WT enzyme) and 1420 nM in data set [5] (EGFR enzyme). Further, the results for the efflux ratio at 2 h, 1 µM in data set [2] and in data set [6] were 2.6 and 1.4, respectively.

Regarding `C=CC(=O)N1CCC(c2ccc3ncnc(Nc4ccc(Oc5ccc6c(c5)ncn6C)c(C)c4F)c3n2)CC12CC2` (stereo not drawn) [Example 128, 1-(7-(4-((2-fluoro-3-methyl-4-((1-methyl-1H-benzo[d]imidazol-5-yl)oxy)phenyl)amino)pyrido[3,2-d]pyrimidin-6-yl)-4-azaspiro[2.5]octan-4-yl)prop-2-en-1-one], the IC50 is 27.7 nM in data set [1] (ErbB2 YVMA phosphorylation), 2620 nM in data set [3] (setting [9]), 44.4 nM in data set [4] (ErbB2 WT enzyme) and not below 10000 nM in data set [5] (EGFR enzyme). Also, the efflux ratio at 2 h, 1 µM was 2.7 in data set [2] and 0.6 in data set [6].

Take `C=CC(=O)N1C[C@H]2C[C@@H]1[C@H](c1ccc3ncnc(Nc4ccc(Oc5ccc6c(c5)ncn6C)c(C)c4F)c3n1)C2` (racemic) [Example 202, rac-1-((1R,4R,6R)-6-(4-((2-fluoro-3-methyl-4-((1-methyl-1H-benzo[d]imidazol-5-yl)oxy)phenyl)amino)pyrido[3,2-d]pyrimidin-6-yl)-2-azabicyclo[2.2.1]heptan-2-yl)prop-2-en-1-one]: the IC50 in data set [1] (ErbB2 YVMA phosphorylation) worked out at 20.6 nM; in data set [3] (setting [9]) it was 4220 nM; in data set [4] (ErbB2 WT enzyme) it was 15.5 nM; in data set [5] (EGFR enzyme) it was 550 nM. In addition, the efflux ratio at 2 h, 1 µM worked out at 2.8 in data set [2] and 1.2 in data set [6].

As to `C=CC(=O)N1C[C@H]2C[C@H](c3ccc4ncnc(Nc5cc(C)c(Oc6ccc7c(c6)ncn7C)cc5F)c4n3)C[C@H]2C1` [Example 136, 1-((3aR,5s,6aS)-5-(4-((2-fluoro-5-methyl-4-((1-methyl-1H-benzo[d]imidazol-5-yl)oxy)phenyl)amino)pyrido[3,2-d]pyrimidin-6-yl)hexahydrocyclopenta[c]pyrrol-2(1H)-yl)prop-2-en-1-one], the IC50 was 28.6 nM in data set [1] (ErbB2 YVMA phosphorylation), not below 5000 nM in data set [3] (setting [9]), 39.9 nM in data set [4] (ErbB2 WT enzyme) and not below 10000 nM in data set [5] (EGFR enzyme). In addition, the efflux ratio at 2 h, 1 µM in data set [2] and in data set [6] was 1.7 each time.

Regarding `C=CC(=O)N1CCN(c2ccc3ncnc(Nc4cc(C)c(Oc5ccc6c(c5)ncn6C)cc4F)c3n2)C[C@H]1C(C)C` [Example 254], the IC50 was 23.2 nM in data set [1] (setting [7]), not below 5000 nM in data set [3] (setting [8]), 92.6 nM in data set [4] (ErbB2 WT enzyme assay) and 5340 nM in data set [5] (EGFR enzyme assay). In addition, the results for the efflux ratio at 2 h, 1 µM in data set [2] and in data set [6] were 2.4 and 1.3, respectively.

As to `C=CC(=O)N1C[C@H](c2ccc3ncnc(Nc4ccc(Oc5ccn6ncnc6c5)c(C)c4F)c3n2)C[C@@H]1C1CC1` (racemic) [Example 302], the IC50 in data set [1] (setting [7]) stood at 17.4 nM; in data set [3] (setting [8]), 1450 nM; in data set [4] (ErbB2 WT enzyme assay), 8.2 nM; in data set [5] (EGFR enzyme assay), 712 nM. In addition, the efflux ratio at 2 h, 1 µM in data set [2] was 3.5; in data set [6], 1.3.

For `C=CC(=O)N1[C@@H]2CC[C@H]1CC(c1ccc3ncnc(Nc4ccc(Oc5ccn6ncnc6c5)c(C)c4F)c3n1)C2` (stereo partly drawn) [Example 369], the 50% inhibitory concentration (IC50) in data set [1] (setting [7]) turned out to be 22.4 nM; in data set [3] (setting [8]) it was 1360 nM; in data set [4] (ErbB2 WT enzyme assay), 67.1 nM; in data set [5] (EGFR enzyme assay) it was 2480 nM. The efflux ratio at 2 h, 1 µM is 4.3 in data set [2] and 1.1 in data set [6].

In the case of `C=CC(=O)N1CCN(c2ccc3ncnc(Nc4ccc(Oc5ccn6ncnc6c5)c(C)c4F)c3n2)CC1(C)C` [Example 31, 1-(4-(4-((4-([1,2,4]triazolo[1,5-a]pyridin-7-yloxy)-2-fluoro-3-methylphenyl)amino)pyrido[3,2-d]pyrimidin-6-yl)-2,2-dimethylpiperazin-1-yl)prop-2-en-1-one], the IC50 amounted to 22.7 nM in data set [1] (ErbB2 YVMA phosphorylation), 928 nM in data set [3] (setting [9]), 14.3 nM in data set [4] (ErbB2 WT enzyme) and 6540 nM in data set [5] (EGFR enzyme). Further, the results for the efflux ratio at 2 h, 1 µM in data set [2] and in data set [6] were 1.8 and 1.3, respectively.

Consider `C=CC(=O)N1CCC[C@@H](c2ccc3ncnc(Nc4ccc(Oc5ccc6c(c5)ncn6C)c(C)c4F)c3n2)CC1` (racemic) [Example 147, rac-(R)-1-(4-(4-((2-fluoro-3-methy-4-((1-methyl-1H-benzo[d]imidazol-5-yl)oxy)phenyl)amino)pyrido[3,2-d]pyrimidin-6-yl)azepan-1-yl)prop-2-en-1-one], for which the IC50 is 23 nM in data set [1] (ErbB2 YVMA phosphorylation), 2590 nM in data set [3] (setting [9]), 18.6 nM in data set [4] (ErbB2 WT enzyme) and 782 nM in data set [5] (EGFR enzyme). The efflux ratio at 2 h, 1 µM in data set [2] was 2.3; in data set [6], 2.9.
